We go through 3 molecules from patent US11447533B2, “Antimicrobial and anticancer peptides and conjugates and compositions, methods, articles and kits relating thereto” (George Mason Research Foundation, Inc., priority 2018, dated 2022).

Data set [1] relates to primary lung epithelium cells. The experiment in a line: Cytotoxicity (Alamar blue). Format: cell-based, human. Here is the method:
FIGS. 11A-11B are graphs showing cytotoxicity against primary lung epithelium cells in serum-free condition. Cells were seeded in complete growth medium (Minimal essential medium supplemented with 10% fetal bovine serum) at near-confluence into a 96-well plate and allowed to settle for 24-hours. Media was then replaced to OptiMEM I reduced serum medium containing peptide or vehicle alone (DBPS) and cells were incubated overnight (16 hours). A resazurin based dye (Alamar blue) was added directly to media and conversion of resazurin to resorufin was evaluated following two hours. % Survival represents the proportion of viable cells in peptide treated cells relative to cells treated with vehicle alone. […] Each peptide was tested in triplicate.
FIG. 12 is a graph showing comparison of toxicities against Lung Primary Epithelial cells and Lung Cancerous Epithelial Cells, derived from H358 cell-line. […] Each peptide was tested in triplicate.
Cytotoxicity. Cells were seeded in complete growth medium (Minimal Essential Medium, MEMα, supplemented with 10% Fetal Bovine Serum) into a culture-treated 96-well plate at a density of 25000 cells per well. After 24 hours, culture media was aspirated and replaced with media containing the selected peptide. No-serum experiments were conducted in Opti-MEM I reduced serum media (ThermoFisher, 31985062) and 10% serum experiments were performed in complete growth medium. In all cases, DBPS was used as a vehicle only control and buffer to serially dilute the peptides. After exposure to the peptides or vehicle-alone for the defined period, Alamar blue dye (resazurin) was added directly to the media and allowed to incubate for two hours. Following incubation, A570/A600 measurements were made to calculate reduction of resazurin dye to resorufin. A ratio of reduction in treated versus untreated cells was calculated in order to determine overall cell viability. The human cells were always maintained in a 37° C. incubator under 5% CO2.
(The colour change of resazurin is a common sign of viable cells or microbes.)

For another data set, the system named is leucocytes and T-cells. Particulars: cited from earlier work.
The subject of another data set is E. coli ATCC 25922. The experiment in a line: Antimicrobial efficacy (resazurin virtual colony count). Format: cell-based, Escherichia coli. Here is the method: (§1) Antimicrobial Studies. The phosphate buffers used for antimicrobial assays were supplemented with non-nitrogenous energy source, 0.1% (w/v) glucose. To conduct antimicrobial assays, bacterial strains were first suspended in respective buffers. E. coli (ATCC 25922) and B. cereus (ATCC 11778) were grown in MHB II up to OD600 nm˜1 and stored as frozen stock in 20% glycerol at −80° C. Occasionally they were thawed and enumerated by serial dilution and spreading on MHB II agar plates. The concentrations of the frozen stocks of E. coli and B. cereus strains were 1.0-1.1*10^8 CFU/mL with OD600 nm˜0.8. In case of other bacterial strains, they were grown on the days of experiment up to OD600 nm˜1-1.5 and then adjusted to OD600 nm˜0.8. The growth media of the drug-resistant bacterial strains were supplemented with few of the respective antibiotics against which they are resistant. 200 μL of the 0.8 OD600 nm culture were added to 10 mL of the respective buffer to obtain a suspension which was used to incubate with equal volumes of peptide solution in the same buffer.
(§2) Antimicrobial assays in different phosphate buffers and serum were conducted by adapting, with necessary modifications a fast high-throughput method based on Virtual Colony Count technique and later modified by incorporating the use of resazurin. At first serial dilution of a microbial strain in respective buffer was poured in the wells of 96 well polypropylene microplate and was then added with same volume of 2× MHB II supplemented with 80 μg/mL resazurin and incubated at 35° C. in a Gemini EM Microplate Reader (Molecular Devices) overnight with intermittent shaking. As the microbe grows it reduces non-fluorescent resazurin to fluorescent resorufin and the fluorescent intensity of each well were measured (excitation=570 nm, emission=590 nm) each 5 min for 15 hours. The time (t, min) to reach a certain fluorescence (RFU=20000 with respect to the starting fluorescence) was correlated with the initial bacterial concentration (in CFU/mL) in the particular well to obtain a calibration plot of the form: Log([Bacteria],CFU/mL)=b+m*t Equation 4: […]
(§3) To obtain antimicrobial efficacy of the peptides, 50 μL of serially diluted peptide in a buffer was incubated with 50 μL microbial suspension in the same buffer for 3 hours in black polypropylene 96 well plate. After incubation the wells were added with 100 μL of 2× MHB II supplemented with 80 μg/mL resazurin and then incubated with continuous fluorescence reading for overnight time period as described earlier. The surviving microbial population (CFU/mL) in each well were calculated by first finding the time to reach a fluorescence of RFU=20000 and the correlation (4) for the specific microbial strain and buffer. % Survival represents the proportion of viable cells in peptide treated cells relative to cells treated with the respective buffer alone. Equation 5: […]
Finally, the antimicrobial effectiveness of each peptide against the particular microbial strain in the specific buffer was determined by plotting % microbial survival as a function of the log of the concentration of the peptide and fitting the resulting data to a variable-slope sigmoidal regression model (equation 6). In this equation, log(EC50) represents the log of the concentration of the peptide required to kill half of the microbial population, where Smin and Smax correspond to the minimal and maximal microbial survival values (respectively), and H, Hill slope, is the parameter defining the steepness of the transition slopes of sigmoidal survival curves. % Microbial survival=Smin+(Smax−Smin)/(1+10^log(EC^50^)-log[peptide]*H) Equation 6: […]
The antimicrobial efficacies of the peptides were first tested against the model Gram-negative bacteria, E. coli ATCC 25922, in different phosphate buffers having varied ionic strengths and compositions. The phosphate buffers that were used included 10 mM sodium phosphate (calculated ionic strength˜25 mM), PBS and DPBS. […]

A further data set relates to B. cereus ATCC 11778. The description is as above. Particulars: DPBS. Format: cell-based, Bacillus cereus. Here is the method: as §1, with “200 μL of the 0.8 OD600 nm culture were added to 10 mL of the respective buffer to obtain a suspension which was used to incubate with equal volumes of peptide solution in the same buffer.” left out
as §2

In data set [2] the test system is E. coli ML35p outer membrane. The experiment in a line: Outer membrane disruption (β-lactamase leakage, nitrocefin). Format: cell-based, Escherichia coli. Particulars: DPBS; HCMAB = 100%. Here is the method:
(§4) Interactions with Bacterial Membranes. Interaction of the peptides with bacterial membranes in different phosphate buffers were evaluated using E. coli ML35p, constructed in our laboratory. At first, competent cells of E. coli ML35 were produced by conventional competent cell preparation method, then transformed with pBR322 plasmid. Transformed colonies were selected after growing on Luria-agar containing 50 μg/mL ampicillin. A single transformed colony was grown in presence of ampicillin first in Luria broth and then in MHBII and stored as 20% glycerol stock at −80° C. This frozen stock, on the day of the experiment, was thawed and grown in MHBII containing ampicillin up to OD600 nm=0.8-0.9, washed with PBS and then suspended in the respective buffer up to the required OD600 nm for use.
Membrane Disruptions. The outer and the inner membrane disruptions by the peptides were evaluated by incubating bacterial suspension with peptides and then measuring the activity of enzymes leaked out of the cells. 100 μL of 10× concentration of peptide in water was incubated with 900 μL bacterial suspension (OD600 nm˜0.1) in respective buffer for 3 hours at room temperature with gentle rotation. Then the cells and debris were separated by centrifugation (10000 r.p.m. for 30 mins) and the supernatant was collected and tested for activity of enzymes that had leaked out of the bacterial cells. HCMAB was used as a positive control to cause 100% membrane disruption and water as a negative causing 0% disruption.
The outer membrane disruption was tested by using the activity of beta-lactamase present in the periplasmic space of E. coli ML35p. Peptides when disrupt the outer membrane enough to cause beta-lactamase to come out, the degree of disruption can be measured by the virtue of the kinetics of the enzyme and using a chromogenic cephalosporin substrate called nitrocefin. β-lactamase mediated hydrolyzed product of nitrocefin has an absorbance αmax=486 nm. Supernatant collected from the incubation of peptide with bacteria was added with nitrocefin solution in DPBS and incubated at 35° C. and continuous absorbance readings. The slope of the linear section of the absorbance curve (absorbance vs time), was used as a measure of membrane disruption and the % Disruption was calculated as: Equation 7: […]
Some of the ATRA1-variants were further tested for their ability to disrupt outer and inner membranes to form pores or disruptions sufficiently large so as to allow enzymes to leak out of their cellular compartments (cytoplasm or periplasmic space). For this purpose, two reporter molecules were used with one being the substrate of a cytoplasmic enzyme and the other was a substrate for an enzyme residing in the periplasmic space. One of the reporters, nitrocefin was the substrate for β-lactamase, which is present in the bacterial periplasm, whereas the other molecule, ONPG, was the substrate for β-galactosidase, which resides in the cytoplasm of E. coli ML35p strain. […] Similarly, β-galactosidase activity in the supernatants is evidence of inner membrane disruption and possible pore formation. When the aforesaid supernatants were tested for nitrocefin and ONPG hydrolysis, the corresponding absorbance increased with time (data not shown) indicating β-lactamase and β-galactosidase activity, respectively, and thus disruption of both the inner and outer membranes. The slopes of the increase in absorbance as a function of time provides the rate of enzyme activity. The enzyme activities in supernatants collected after incubation of bacteria with the quaternary ammonium surfactant, hexadecyltrimethylammonium bromide (HCMAB) was used as an internal reference for 100% membrane disruption. Enzyme activity for supernatants collected for cells incubated in the absence of peptide provided a reference for 0% membrane disruption. Bee venom peptide melittin was used as a positive control. […]

Data set [3] relates to E. coli ML35p outer membrane. Briefly: NPN assay, outer membrane perturbation. The class given is cell-based, Escherichia coli. Particulars: PBS; 25 μM peptide; 25 μM PMB = 100%. Here is the method: as §4
NPN Assay. The outer membrane perturbation of bacteria was evaluated by incubating E. coli ML35p with peptides in presence of NPN. 100 mM NPN in acetone was supplemented proportionately to a bacterial suspension of OD600 nm˜0.5 to achieve a final concentration of 20 μM of NPN and the mixture was equilibrated for 30 mins. Then, 90 μL of the bacterial suspension containing 20 μM NPN was added with 10 μL of 250 μM peptide (10×) solution in water and scanned for fluorescence intensity (excitation=350 nm, emission=420 nm). The % Perturbation was calculated by considering PMB to be causing 100% Perturbation and water (without peptide) as 0% Perturbation. Each peptide was tested in triplicate in each of the three phosphate buffers used.
When peptides partition from the bulk aqueous environment to the cellular membranes, they may cause small defects in the membrane organization, a signature of adsorption of the peptides into the membranes. Such small defects are called membrane perturbations and can be evaluated by utilizing molecular probes. One such molecular probe is NPN, which is a hydrophobic molecule and is usually repelled to enter the hydrophobic interiors of the membrane by the polar headgroups of membrane-lipids. However, when small defects and gaps are caused during the adsorption of the peptides into the membranes, NPN can enter through those defects and in the hydrophobic environment of the membrane interior the molecule fluoresces, which can be measured for quantification of the extent of membrane-perturbation and peptide adsorption in the cellular membrane.

The subject of the next data set is Pseudomonas aeruginosa. The experiment in a line: Antimicrobial efficacy against ESKAPE pathogens. Format: cell-based. Particulars: mammalian serum. Here is the method:
as §1, §2, §3
Finally, the antimicrobial effectiveness of each peptide against the particular microbial strain in the specific buffer was determined by plotting % microbial survival as a function of the log of the concentration of the peptide and fitting the resulting data to a variable-slope sigmoidal regression model (equation 6). […]
ATRA1-R3W2-HYD, NA-CATH and PMB were evaluated for their effectiveness in mammalian serum conditions against pathogenic bacteria of both normal and drug-resistant strains. […]

The mark [4] stands for this setting: ~16 hours (overnight), reduced serum conditions.

Turning to `CC[C@H](C)[C@H](NC(=O)[C@H](CCCCN)NC(=O)[C@H](CCC(=O)O)NC(=O)[C@H](CCCCN)NC(=O)[C@H](CO)NC(=O)[C@H](CCCCN)NC(=O)[C@H](CCCNC(=N)N)NC(=O)[C@H](Cc1ccccc1)NC(=O)[C@H](Cc1ccccc1)NC(=O)[C@H](CC(=O)O)NC(=O)CNC(=O)[C@H](CC(C)C)NC(=O)[C@@H](N)CC(C)C)C(=O)NCC(=O)N[C@@H](CCCCN)C(=O)N[C@@H](CCC(=O)O)C(=O)N[C@@H](Cc1ccccc1)C(=O)N[C@@H](CCCCN)C(=O)N[C@@H](CCCNC(=N)N)C(=O)N[C@H](C(=O)N[C@H](C(=O)N[C@@H](CCC(N)=O)C(=O)N[C@@H](CCCNC(=N)N)C(=O)N[C@H](C(=O)N[C@@H](CCCCN)C(=O)N[C@@H](CC(=O)O)C(=O)N[C@@H](Cc1ccccc1)C(=O)N[C@@H](CC(C)C)C(=O)N[C@@H](CCCNC(=N)N)C(=O)N[C@@H](CC(N)=O)C(=O)N[C@@H](CC(C)C)C(=O)N[C@H](C(=O)N1CCC[C@H]1C(=O)N[C@@H](CCCNC(=N)N)C(=O)N[C@H](C(=O)N[C@@H](CCC(=O)O)C(=O)N[C@@H](CO)C(=O)O)[C@@H](C)O)C(C)C)[C@@H](C)CC)C(C)C)[C@@H](C)CC` [LL37], in data set [1] (~6 hours, 10% fetal bovine serum), the “concentration over which toxicity was exhibited” value is greater than 10 µM. In data set [1] (setting [4]), the “concentration over which significant toxicity was observed” value is on record as “Over 10 μM” and the “cytotoxicity, in words” value is “higher degrees of cytotoxicity”. Also, the “concentrations of significant cytotoxicity” value in the data set with leucocytes and T-cells is 13 to 25 µM.
Turning to KRFKKFFKKFK (SEQ ID NO: 11) [ATRA1-F], the “antimicrobial efficacy, in words” value is “lost activity in DPBS” in the data set with E. coli ATCC 25922 (DPBS (with Ca++ and Mg++), pH 7.4); “more effective than ATRA1” in the data set with E. coli ATCC 25922 (PBS (high / physiologically relevant ionic strength), pH 7.4); “somewhat effective” with B. cereus ATCC 11778. Besides, the “outer membrane disruption (β-lactamase activity) relative to HCMAB” value in data set [2] is reported as “intermediate”. Moreover, the “membrane perturbation with respect to PMB” value in data set [3] is on record as “decreased slightly”.
In the case of Polymyxin B [PMB, reference compound], the “increase of EC50 in presence of albumin relative to EC50 in DPBS” value in the data set with E. coli ATCC 25922 (DPBS + 4% (w/v) bovine serum albumin versus DPBS) is “approximately 3 fold”. The “antimicrobial efficacy, in words” value in the data set with E. coli ATCC 25922 (serum) is “retained significant antimicrobial activities”. For the same molecule, the “antimicrobial effectiveness, in words” value in the data set on Pseudomonas aeruginosa is recorded as “effective”. For the same molecule, the “concentration over which significant toxicity was observed” value in data set [1] (setting [4]) is greater than 6 µM.
